Read-outs that look alike come from different tables or passages of the source.
How the values were obtained:
[1] = system: NCI-H69 SCLC xenograft; experiment: Cell line-derived xenograft model NCI-H69; type: in vivo, BALB/c nude mice; details: 0.33 mg/kg, Q1D×28 p.o.
Procedure: (§1) Human NCI-H1048, NCI-H209, and NCI-H69 SCLC tumor cells were injected subcutaneously in the flanks of BALB/c nude mice. When tumors reached approximately 130 mm^3 average volume, animals (n=8 per group) were treated with vehicle (Q1D×28, p.o.), cisplatin (6 mg/kg, Q6D×2 i.p.), or talazoparib (0.33 mg/kg, Q1D×28 p.o.). Tumor growth and animal body weight were monitored twice per week by standard methods.

[2] = system: LU67 SCLC PDX tumor; experiment: Human SCLC PDX model LU67; type: in vivo, immunocompromised mice; details: D 25, MTD 0.25-0.3 mg/kg once daily oral, median tumor volume (n = 5)
Procedure: (§2) Twelve human SCLC PDX models (obtained from Crown Biosciences, OncoTest, WuxiAppTec) were evaluated for their responses to talazoparib single agent treatment. PDX tumors were propagated subcutaneously in immunocompromised mice at passage 3 to 13. When tumors reached approximately 150 mm^3 average volume, animals (n=5 per group) were administered orally with vehicle (once daily dose), or talazoparib at the maximum tolerated dose (MTD; 0.25-0.3 mg/kg, once daily). Tumor volume and animal body weight were measured twice weekly until the end of study or until tumor size exceeded 2000 mm^3. Untreated tumor samples were collected from mice. Median tumor volume on Day 21 and beyond after first treatment was used to calculate the change from baseline to evaluate response.

[3] = system: CTG-0199 SCLC PDX tumor; experiment: Human SCLC PDX model CTG-0199; type: in vivo, immunocompromised mice; details: D 21, MTD 0.25-0.3 mg/kg once daily oral, median tumor volume (n = 5)
Procedure: as §2

[4] = system: LXFS 615 SCLC PDX tumor; experiment: Human SCLC PDX model LXFS 615; type: in vivo, immunocompromised mice; details: D 21, MTD 0.25-0.3 mg/kg once daily oral, median tumor volume (n = 5)
Procedure: as §2

[5] = system: LXFS 2156 SCLC PDX tumor; experiment: Human SCLC PDX model LXFS 2156; type: in vivo, immunocompromised mice; details: D 21, MTD 0.25-0.3 mg/kg once daily oral, median tumor volume (n = 5)
Procedure: as §2

[6] = system: LU-01-0547 SCLC PDX tumor; experiment: Human SCLC PDX model LU-01-0547; type: in vivo, immunocompromised mice; details: D 83, MTD 0.25-0.3 mg/kg once daily oral, median tumor volume (n = 5)
Procedure: as §2

[7] = system: LXFS 573 SCLC PDX tumor; experiment: Human SCLC PDX model LXFS 573; type: in vivo, immunocompromised mice; details: D 21, MTD 0.25-0.3 mg/kg once daily oral, median tumor volume (n = 5)
Procedure: as §2

[8] = system: NCI-H209 SCLC xenograft; experiment: Cell line-derived xenograft model NCI-H209; type: in vivo, BALB/c nude mice; details: 0.33 mg/kg, Q1D×28 p.o.
Procedure: as §1

[9] = system: LU65 SCLC PDX tumor; experiment: Human SCLC PDX model LU65; type: in vivo, immunocompromised mice; details: D 21, MTD 0.25-0.3 mg/kg once daily oral, median tumor volume (n = 5)
Procedure: as §2

[10] = system: Twelve human SCLC PDX models; experiment: Twelve human SCLC PDX models, response classification; type: in vivo, immunocompromised mice; details: 12 SCLC PDX models; talazoparib at maximum tolerated dose
Procedure: as §2
Twelve human SCLC PDX models were further tested with talazoparib at maximum tolerated doses compared to a vehicle control.

[11] = system: LXFS 1129 SCLC PDX tumor; experiment: Human SCLC PDX model LXFS 1129; type: in vivo, immunocompromised mice; details: D 21, MTD 0.25-0.3 mg/kg once daily oral, median tumor volume (n = 5)
Procedure: as §2

[12] = system: LU1267 SCLC PDX tumor; experiment: Human SCLC PDX model LU1267; type: in vivo, immunocompromised mice; details: D 38, MTD 0.25-0.3 mg/kg once daily oral, median tumor volume (n = 5)
Procedure: as §2

[13] = system: LU2514 SCLC PDX tumor; experiment: Human SCLC PDX model LU2514; type: in vivo, immunocompromised mice; details: D 21, MTD 0.25-0.3 mg/kg once daily oral, median tumor volume (n = 5)
Procedure: as §2

[14] = system: CTG-0198 SCLC PDX tumor; experiment: Human SCLC PDX model CTG-0198; type: in vivo, immunocompromised mice; details: D 29, MTD 0.25-0.3 mg/kg once daily oral, median tumor volume (n = 5)
Procedure: as §2

[15] = system: LXFS 650 SCLC PDX tumor; experiment: Human SCLC PDX model LXFS 650; type: in vivo, immunocompromised mice; details: D 21, MTD 0.25-0.3 mg/kg once daily oral, median tumor volume (n = 5)
Procedure: as §2

[16] = system: 38 SCLC cell lines; experiment: Cell line cytotoxicity assay (CellTiter Glo), panel of 38 SCLC cell lines; type: cell-based; details: Homo sapiens, 38 SCLC lines, 5 or 7 days incubation, generational method
Procedure: Various SCLC cell lines (38) were obtained from ATCC (American Type Culture Collection), ECACC (European Collection of Cell Cultures), JCRB (Japanese Collection of Research Bioresources), and CLS Cell Lines Service as shown in Table 1. […] After 24 h, talazoparib at 2000, 400, 80, 16, 3.2, or 0.64 nM in 0.2% DMSO, or cisplatin at 100,000, 2000, 400, 80, 16, or 3.2 nM were added in duplicate, and incubated for an additional 5 or 7 days. Cell survival was determined by CellTiter Glo assay (Promega). Cell growth inhibition was calculated by two methods: (a) the treated cell counts relative to untreated control to obtain IC50 (convention survival fraction method), or (b) doublings from baseline under treatment relative to doublings from baseline without treatment to obtain GI50 (generational method), using GraphPad Prism5. Maximum inhibition levels for each method were also obtained.

[17] = system: NCI-H69 SCLC cell line; experiment: Cell line cytotoxicity assay (CellTiter Glo), NCI-H69; type: cell-based; details: Homo sapiens, SLFN11 RMA 3.981, read-out: BMN 673 Sensitivity In vitro GI50
Procedure: (§3) After 24 h, talazoparib at 2000, 400, 80, 16, 3.2, or 0.64 nM in 0.2% DMSO, or cisplatin at 100,000, 2000, 400, 80, 16, or 3.2 nM were added in duplicate, and incubated for an additional 5 or 7 days. Cell survival was determined by CellTiter Glo assay (Promega). Cell growth inhibition was calculated by two methods: (a) the treated cell counts relative to untreated control to obtain IC50 (convention survival fraction method), or (b) doublings from baseline under treatment relative to doublings from baseline without treatment to obtain GI50 (generational method), using GraphPad Prism5. Maximum inhibition levels for each method were also obtained.

[18] = system: NCI-H209 SCLC cell line; experiment: Cell line cytotoxicity assay (CellTiter Glo), NCI-H209; type: cell-based; details: Homo sapiens, SLFN11 RMA 8.794, read-out: BMN 673 Sensitivity In vitro GI50
Procedure: as §3

[19] = system: NCI-H1048 SCLC cell line; experiment: Cell line cytotoxicity assay (CellTiter Glo), NCI-H1048; type: cell-based; details: Homo sapiens, SLFN11 RMA 7.583, read-out: BMN 673 Sensitivity In vitro GI50
Procedure: as §3

[20] = system: NCI-H1048 SCLC xenograft; experiment: Cell line-derived xenograft model NCI-H1048; type: in vivo, BALB/c nude mice; details: 0.33 mg/kg, Q1D×28 p.o.
Procedure: as §1

Cn1ncnc1[C@H]1c2n[nH]c(=O)c3cc(F)cc(c23)N[C@@H]1c1ccc(F)cc1 [talazoparib]
BMN 673 Sensitivity In vivo Tumor growth [1]: No delay | Best response: Change from base line (%) [2]: −29% | Best response: Change from base line (%) [3]: 318% | Best response: Change from base line (%) [4]: 83% | Best response: Change from base line (%) [5]: 615% | Best response: Change from base line (%) [6]: −95% | Best response: Change from base line (%) [7]: 351% | BMN 673 Sensitivity In vivo Tumor growth [8]: much more sensitive to talazoparib than the H69 model | BMN 673 Sensitivity In vivo Tumor growth ([8]; listed as BMN 673, 0.33 mg/kg): Delay | Best response: Change from base line (%) [9]: 17% | PDX models designated as progressive disease (PD) [10]: remaining PDX models were resistant | PDX models with 30% or more tumor regression compared to baseline (partial responders, PR) [10]: Three of the 12 | PDX tumors with stable disease (SD)-like responses, tumor growth less than 100% on Day 21 or beyond [10]: three of the 12 | Best response: Change from base line (%) [11]: 260% | Best response: Change from base line (%) [12]: −30% | Best response: Change from base line (%) [13]: 262% | Best response: Change from base line (%) [14]: −55% | Best response: Change from base line (%) [15]: 314% | GI50 ([16]; read-out: GI50 range across the 38 SCLC lines): ≥ 2 nM | GI50 ([16]; read-out: median GI50 across the 38 SCLC lines): 56 nM | GI50 [17]: 190 nM | GI50 [18]: 2.03 nM | GI50 [19]: 14.4 nM | BMN 673 Sensitivity In vivo Tumor growth [20]: much more sensitive to talazoparib than the H69 model | BMN 673 Sensitivity In vivo Tumor growth ([20]; listed as BMN 673, 0.33 mg/kg): Delay

Source: patent US20190054087A1, “TREATMENT OF SMALL CELL LUNG CANCER WITH A PARP INHIBITOR” (priority 2015, published 2019)
